Measured values as given in US20060115440A1, “Silver dihydrogen citrate compositions” (priority 2004, published 2006).
Read-outs that look alike come from different tables or passages of the source.

Columns and labels:
[1] = test system: Staphylococcus aureus (ATCC 6538); conditions: test solutions contained 100 ppm Ag^+ in 5% citric acid solution at pH 7.0 (adjusted with NaOH)
Description: (§1) In the Table 57, test solutions contained 100 ppm Ag^+ in 5% citric acid solution at pH 7.0 (adjusted with NaOH).

[2] = test system: Escherichia coli (ATCC 10536); conditions: test solutions contained 100 ppm Ag^+ in 5% citric acid solution at pH 7.0 (adjusted with NaOH)
Description: as §1

[3] = test system: Corynebacterium xerosis (ATCC 373)
Description: as §1

[4] = test system: Pseudomonas aeruginosa (ATCC 15442); conditions: test solutions contained 100 ppm Ag^+ in 5% citric acid solution at pH 7.0 (adjusted with NaOH)
Description: as §1

[5] = test system: bacteria, fungi and viruses
[6] = test system: Trichophyton mentagrophytes (ATCC 9533); conditions: test solutions 100 ppm Ag^+ in water at pH 7.0 (adjusted with NaOH)
Description: (§2) In the Table 58, test solutions contained 100 ppm Ag^+ in water at pH 7.0 (adjusted with NaOH).

[7] = test system: Chaetomium globosum (ATCC 6205); conditions: test solutions 100 ppm Ag^+ in water at pH 7.0 (adjusted with NaOH)
Description: as §2

[8] = test system: Trichophyton rubrum (ATCC 10218); conditions: test solutions 100 ppm Ag^+ in water at pH 7.0 (adjusted with NaOH)
Description: as §2

[9] = test system: Candida albicans (ATCC 10231); conditions: test solutions 100 ppm Ag^+ in water at pH 7.0 (adjusted with NaOH)
Description: as §2

[10] = test system: Malessezia furfur (DSM 6171); conditions: test solutions 100 ppm Ag^+ in water at pH 7.0 (adjusted with NaOH)
Description: as §2

[11] = test system: Corynebacterium minutissimum (ATCC 23348); conditions: test solutions 100 ppm Ag^+ in water at pH 7.0 (adjusted with NaOH)
Description: as §2

[12] = test system: Epidermophyton floccosum DSM 10709; conditions: test solutions 100 ppm Ag^+ in water at pH 7.0 (adjusted with NaOH)
Description: as §2

[13] = test system: Propionibacterium acnes (ATCC 6919); conditions: test solutions 100 ppm Ag^+ in water at pH 7.0 (adjusted with NaOH)
Description: as §2

[14] = test system: several varieties of bacteria
Description: as §1, §2

[15] = in a mixture of anion, non-ionic and amphoteric surfactants

## O=C(O)CC(O)(CC(=O)O)C(=O)[O-].[Ag+] [Silver dihydrogen citrate, silver dihydrogen citrate]
[1]
  Minimum Inhibitory Concentration (MIC): 4.0 μg/ml μg/ml Ag^+
[2]
  Minimum Inhibitory Concentration (MIC): 2.0 μg/ml Ag^+
[3]; Corynebacterium xerosis (ATCC 373), test solutions 100 ppm Ag^+ in water at pH 7.0 (adjusted with NaOH)
  Minimum Inhibitory Concentration (MIC): 3.0 μg/ml Ag^+
[3]; test solutions contained 100 ppm Ag^+ in 5% citric acid solution at pH 7.0 (adjusted with NaOH)
  Minimum Inhibitory Concentration (MIC): 2.0 μg/ml Ag^+
[4]
  Minimum Inhibitory Concentration (MIC): 4.0 μg/ml Ag^+
[5]
  antimicrobial activity (in words): antimicrobial activity against a variety of microbes
[6]
  Minimum Inhibitory Concentration (MIC): 12-24 μg/ml Ag^+
[7]
  Minimum Inhibitory Concentration (MIC): 12-24 μg/ml Ag^+
[8]
  Minimum Inhibitory Concentration (MIC): 12-48 μg/ml Ag^+
[9]
  Minimum Inhibitory Concentration (MIC): 3.0 μg/ml Ag^+
[10]
  Minimum Inhibitory Concentration (MIC): 6.0 μg/ml Ag^+
[11]
  Minimum Inhibitory Concentration (MIC): 3.0 μg/ml Ag^+
[12]
  Minimum Inhibitory Concentration (MIC): 12-48 μg/ml Ag^+
[13]
  Minimum Inhibitory Concentration (MIC): 6.0 μg/ml Ag^+
[14]
  effect on several varieties of bacteria (in words): bacteriostatic
[15]
  time-wise stability of the antimicrobial activity: stable and showed good preservation
